Experimental data taken from patent US11780821B2, “Inhibitors of fibroblast activation protein” (Praxis Biotech LLC, priority 2017, dated 2023).
Where two headings read alike, the source gives them in different places.

Tests used:
Type in all cases: biochemical
[1] = target: T1, recombinant human FAPα (rhFAPα) (Homo sapiens, UniProt Q12884); assay: FAPα enzymatic exopeptidase (dipeptidase) activity assay; settings: for inhibition at 1 µM: read-out: rhFAPα (% exo inh @ 1 μM)
T1 construct: purchased R&S system (so in the source)
T1 sequence (Q12884 1-760): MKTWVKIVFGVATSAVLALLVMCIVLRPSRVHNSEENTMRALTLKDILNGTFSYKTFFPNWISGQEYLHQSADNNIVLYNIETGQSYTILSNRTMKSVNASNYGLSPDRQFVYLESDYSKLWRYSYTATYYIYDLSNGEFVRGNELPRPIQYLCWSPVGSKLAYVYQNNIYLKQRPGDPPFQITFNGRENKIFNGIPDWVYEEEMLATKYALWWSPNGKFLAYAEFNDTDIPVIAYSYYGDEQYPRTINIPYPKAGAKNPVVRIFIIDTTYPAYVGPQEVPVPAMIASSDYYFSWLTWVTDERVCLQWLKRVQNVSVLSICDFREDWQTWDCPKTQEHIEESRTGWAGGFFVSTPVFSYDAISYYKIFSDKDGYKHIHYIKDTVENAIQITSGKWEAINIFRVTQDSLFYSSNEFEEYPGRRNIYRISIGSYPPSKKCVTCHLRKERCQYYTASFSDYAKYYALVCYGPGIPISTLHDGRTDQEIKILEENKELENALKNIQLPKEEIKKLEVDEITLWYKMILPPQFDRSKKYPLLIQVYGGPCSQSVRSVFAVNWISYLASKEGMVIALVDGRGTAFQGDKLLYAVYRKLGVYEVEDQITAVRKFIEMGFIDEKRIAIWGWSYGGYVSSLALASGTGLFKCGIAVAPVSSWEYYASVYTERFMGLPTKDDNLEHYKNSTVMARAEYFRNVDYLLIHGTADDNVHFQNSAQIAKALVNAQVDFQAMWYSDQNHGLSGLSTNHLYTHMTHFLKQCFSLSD

[2] = target: T2, circulating FAPα from human plasma (Homo sapiens, UniProt Q12884); assay: Ex vivo inhibition of circulating FAPα activity from human plasma
T2 construct: from tissue; host or cells: human plasma (EDTA-K2)
T2 sequence (Q12884 24-760 limits assumed): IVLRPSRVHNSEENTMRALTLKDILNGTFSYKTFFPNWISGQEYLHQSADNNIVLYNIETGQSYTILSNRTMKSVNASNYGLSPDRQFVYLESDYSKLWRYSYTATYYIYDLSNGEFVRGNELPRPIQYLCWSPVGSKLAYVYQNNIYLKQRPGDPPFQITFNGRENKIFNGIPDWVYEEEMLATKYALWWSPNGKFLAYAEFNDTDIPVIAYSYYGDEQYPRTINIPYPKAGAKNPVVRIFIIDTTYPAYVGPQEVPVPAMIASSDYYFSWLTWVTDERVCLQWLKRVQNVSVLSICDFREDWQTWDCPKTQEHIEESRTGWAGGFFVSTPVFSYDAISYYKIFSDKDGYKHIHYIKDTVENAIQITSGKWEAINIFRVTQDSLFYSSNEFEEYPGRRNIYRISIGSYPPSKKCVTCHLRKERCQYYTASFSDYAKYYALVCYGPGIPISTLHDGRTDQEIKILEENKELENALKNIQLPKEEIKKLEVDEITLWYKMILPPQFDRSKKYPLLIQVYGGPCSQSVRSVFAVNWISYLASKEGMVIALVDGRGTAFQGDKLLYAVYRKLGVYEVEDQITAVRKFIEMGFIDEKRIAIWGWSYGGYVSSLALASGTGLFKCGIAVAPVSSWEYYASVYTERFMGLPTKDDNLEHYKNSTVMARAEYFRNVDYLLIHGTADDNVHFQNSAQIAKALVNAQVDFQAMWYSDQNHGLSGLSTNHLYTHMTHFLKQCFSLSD
Protocol: Human blood was obtained from healthy young volunteers. Blood samples were collected in tubes coated with EDTA-K2 by venipuncture method, mixed gently, then kept on ice and centrifuged at 2,500×g for 15 minutes at 4° C. After plasma separation, samples were stored at −80° C. in aliquots of 300 μL. […] Exemplary compounds were allowed to interact with the enzyme for 15 minutes at 37° C. After pre-incubation, 50 μl of 200 μM PRXS-AMC substrate were added to the all mixtures. All reactions were carried out for 1 h at 37° C. protected from light. AMC release was detected measuring fluorescence at an excitation/emission wavelength of 380/460 nm using a Multifunction Microplate Reader. All measurements were carried out as single point.

[3] = target: T3, recombinant human DPP9 (rhDPP9) (Homo sapiens, UniProt Q86TI2); assay: DPP9 enzymatic activity assay; settings: H-Gly-Pro-AMC substrate
T3 construct: purchased R&S system (so in the source)
Protocol: 7-Amino-4-Methylcoumarin (AMC) release was detected by measuring fluorescence at Ex/Em 380/460 nm using a Multifunction Microplate Reader (Synergy 4, Biotek). All measurements were carried out in triplicate.

[4] = 1 μM test compound, Z-Gly-Pro-AMC substrate
[5] = Table 2, exopeptidase, Z-Gly-Pro-AMC, read-out: rhFAPα (exo IC50)
[6] = Table 3, exopeptidase, read-out: rhFAPα (exo IC50)
[7] = human plasma, PRXS-AMC substrate, read-out: FAPα activity in human plasma (PRXS-AMC) IC50

T3 sequence (Q86TI2 whole entry): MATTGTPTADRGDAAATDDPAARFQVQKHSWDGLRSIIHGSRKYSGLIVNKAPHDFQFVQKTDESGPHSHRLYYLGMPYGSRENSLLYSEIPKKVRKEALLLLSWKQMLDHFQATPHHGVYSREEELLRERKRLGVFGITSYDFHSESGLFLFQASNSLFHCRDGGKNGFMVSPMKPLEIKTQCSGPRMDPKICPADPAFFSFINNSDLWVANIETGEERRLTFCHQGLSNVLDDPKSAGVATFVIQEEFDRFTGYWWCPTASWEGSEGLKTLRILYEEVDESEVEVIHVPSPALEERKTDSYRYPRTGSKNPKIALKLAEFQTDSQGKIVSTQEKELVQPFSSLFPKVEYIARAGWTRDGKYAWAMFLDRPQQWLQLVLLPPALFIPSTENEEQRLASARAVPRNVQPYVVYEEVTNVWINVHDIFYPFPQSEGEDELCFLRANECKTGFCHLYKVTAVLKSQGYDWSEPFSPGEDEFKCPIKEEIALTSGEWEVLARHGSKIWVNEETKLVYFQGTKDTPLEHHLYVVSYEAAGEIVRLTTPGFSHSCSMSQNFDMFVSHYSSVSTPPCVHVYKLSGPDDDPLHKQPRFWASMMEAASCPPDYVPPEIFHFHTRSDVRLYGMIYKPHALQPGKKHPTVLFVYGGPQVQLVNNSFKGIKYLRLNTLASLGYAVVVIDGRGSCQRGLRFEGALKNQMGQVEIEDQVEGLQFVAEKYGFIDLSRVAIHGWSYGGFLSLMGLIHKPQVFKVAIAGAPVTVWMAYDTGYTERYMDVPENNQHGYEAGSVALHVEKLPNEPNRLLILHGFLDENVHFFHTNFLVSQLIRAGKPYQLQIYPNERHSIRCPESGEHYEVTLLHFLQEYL

Compound | inhibition at 1 µM [1, 4] [%] | IC50 [1, 5] [nM] | IC50 [1, 6] [nM] | IC50 [2, 7] [nM] | IC50 [3] [nM] | inhibition at 1 µM [1] [%] | IC50 [1] [nM] | IC50 ([1]; read-out: rhFAPα (exo IC50), Table 3, exopeptidase) [nM] | IC50 [2] [nM]
N#C[C@@H]1CC(F)(F)CN1C(=O)CNC(=O)c1c[nH]c(=O)c(-c2ccccc2)c1 [Compound 14, (S)—N-(2-(2-cyano-4,4-difluoropyrrolidin-1-yl)-2-oxoethyl)-6-oxo-5-phenyl-1,6-dihydropyridine-3-carboxamide] | > 50 | < 1000 | < 1000 | < 1000 | 1000 to 10000 |  |  |  | 
N#C[C@@H]1CC(F)(F)CN1C(=O)CNC(=O)c1ccncc1-c1ccc(F)cc1 [Compound 52, (S)—N-(2-(2-cyano-4,4-difluoropyrrolidin-1-yl)-2-oxoethyl)-3-(4-fluorophenyl)isonicotinamide] |  | < 1000 | < 1000 | < 1000 | > 10000 | > 50 |  |  | 
N#C[C@@H]1CC(F)(F)CN1C(=O)CNC(=O)c1ccncc1-c1cc(F)cc(F)c1 [Compound 47, (S)—N-(2-(2-cyano-4,4-difluoropyrrolidin-1-yl)-2-oxoethyl)-3-(3,5-difluorophenyl)isonicotinamide] |  |  |  |  | > 10000 | > 50 | < 1000 | < 1000 | < 1000
N#C[C@@H]1CC(F)(F)CN1C(=O)CNC(=O)c1c[nH]c(=O)cc1-c1ccc(F)cc1 [Compound 109, (S)—N-(2-(2-cyano-4,4-difluoropyrrolidin-1-yl)-2-oxoethyl)-4-(4-fluorophenyl)-6-oxo-1,6-dihydropyridine-3-carboxamide] |  | < 1000 | < 1000 | < 1000 | 1000 to 10000 | > 50 |  |  | 
Cn1ncc2c(-c3cnccc3C(=O)NCC(=O)N3CC(F)(F)C[C@H]3C#N)cccc21 [Compound 87, (S)—N-(2-(2-cyano-4,4-difluoropyrrolidin-1-yl)-2-oxoethyl)-3-(1-methyl-1H-indazol-4-yl)isonicotinamide] | > 50 | < 1000 | < 1000 | < 1000 | > 10000 |  |  |  | 
C=C(c1ccccc1)c1cnccc1C(=O)NCC(=O)N1CC(F)(F)C[C@H]1C#N [Compound 122, (S)—N-(2-(2-cyano-4,4-difluoropyrrolidin-1-yl)-2-oxoethyl)-3-(1-phenylvinyl)isonicotinamide] |  | < 1000 | < 1000 |  | > 10000 | > 50 |  |  | 
N#C[C@@H]1CC(F)(F)CN1C(=O)CNC(=O)c1ccncc1-c1ccccc1 [Compound 13, (S)—N-(2-(2-cyano-4,4-difluoropyrrolidin-1-yl)-2-oxoethyl)-3-phenylisonicotinamide] |  | < 1000 | < 1000 | < 1000 | 1000 to 10000 | > 50 |  |  | 
N#C[C@@H]1CC(F)(F)CN1C(=O)CNC(=O)c1ccncc1-c1cc(Cl)ccc1F [Compound 54, (S)-3-(5-chloro-2-fluorophenyl)-N-(2-(2-cyano-4,4-difluoropyrrolidin-1-yl)-2-oxoethyl)isonicotinamide] | > 50 | < 1000 | < 1000 | < 1000 | > 10000 |  |  |  | 
N#C[C@@H]1CC(F)(F)CN1C(=O)CNC(=O)c1ccncc1C1=CCNCC1 [Compound 105, (S)—N-(2-(2-cyano-4,4-difluoropyrrolidin-1-yl)-2-oxoethyl)-1′,2′,3′,6′-tetrahydro-[3,4′-bipyridine]-4-carboxamide 2,2,2-trifluoroacetate] |  | < 1000 | < 1000 | < 1000 | > 10000 | > 50 |  |  | 
C=Cc1cnccc1C(=O)NCC(=O)N1CC(F)(F)C[C@H]1C#N [Compound 40, (S)—N-(2-(2-cyano-4,4-difluoropyrrolidin-1-yl)-2-oxoethyl)-3-vinylisonicotinamide] | > 50 | < 1000 | < 1000 | < 1000 | > 10000 |  |  |  | 
N#C[C@@H]1CC(F)(F)CN1C(=O)CNC(=O)c1ccncc1C1CC1 [Compound 24, (S)—N-(2-(2-cyano-4,4-difluoropyrrolidin-1-yl)-2-oxoethyl)-3-cyclopropylisonicotinamide] |  | < 1000 | < 1000 | < 1000 | 1000 to 10000 | > 50 |  |  | 
N#C[C@@H]1CC(F)(F)CN1C(=O)CNC(=O)c1ccncc1N1CCOCC1 [Compound 88, N-[2-[(2S)-2-cyano-4,4-difluoro-pyrrolidin-1-yl]-2-oxo-ethyl]-3-morpholino-pyridine-4-carboxamide] | > 50 | < 1000 | < 1000 | < 1000 | 1000 to 10000 |  |  |  | 
N#C[C@@H]1CC(F)(F)CN1C(=O)CNC(=O)c1c[nH]c(=O)c2ccc(F)cc12 [Compound 26, (S)—N-(2-(2-cyano-4,4-difluoropyrrolidin-1-yl)-2-oxoethyl)-6-fluoro-1-oxo-1,2-dihydroisoquinoline-4-carboxamide] | > 50 | < 1000 | < 1000 | < 1000 | 1000 to 10000 |  |  |  | 
N#C[C@@H]1CC(F)(F)CN1C(=O)CNC(=O)c1ccncc1Cc1ccccc1 [Compound 50, (S)-3-benzyl-N-(2-(2-cyano-4,4-difluoropyrrolidin-1-yl)-2-oxoethyl)isonicotinamide] | > 50 | < 1000 | < 1000 | < 1000 | < 1000 |  |  |  | 
N#C[C@@H]1CC(F)(F)CN1C(=O)CNC(=O)c1c[nH]c(=O)c2ccccc12 [Example 1, (S)—N-(2-(2-cyano-4,4-difluoropyrrolidin-1-yl)-2-oxoethyl)-1-oxo-1,2-dihydroisoquinoline-4-carboxamide] |  | < 1000 | < 1000 | < 1000 | 1000 to 10000 |  |  |  | 
